# Test system: 282377-053-R-J1-PDC complex spheroid viability
# Assay: Anticancer human tumor 282377-053-R-J1-PDC patient-derived colon adenocarcinoma cell line growth inhibition [POLQ]
# Conditions: for IC50: curve of first compound; for viability, T/C: stronger effect = lower value
# Procedure, shortened: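 Growth inhibition in 3D: complex spheroids (tumor PDC, HUVEC, MSC) treated with POLQ inhibitor combinations; where Cmax unknown, highest tested concentration 10 microM, except SN-38 at 1 microM.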
# 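Also: spheroids exposed to compounds for seven days.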
# 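For viability, T/C in this document: 100% = DMSO vehicle control viability.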
smiles,measurement,setting,value
C=CCn1c(=O)c2cnc(Nc3ccc(N4CCN(C)CC4)cc3)nc2n1-c1cccc(C(C)(C)O)n1 + Nc1ccc(C#CCN(C(=O)Cc2ncc(C(F)(F)F)cc2C(F)(F)F)c2ccc(F)cc2)nn1,IC50,second compound 0.0316 µM,> 1000 nM
same,IC50,second compound 0.1 µM,> 1000 nM
same,IC50,second compound 0.316 µM,> 1000 nM
same,IC50,second compound 1 µM,> 1000 nM
same,IC50,second compound 3.16 µM,> 1000 nM
same,IC50,second compound 10 µM,> 1000 nM
same,"viability, T/C","second compound 0.0316 µM, first compound 0.00316 µM",122%
same,"viability, T/C","second compound 0.0316 µM, first compound 0.01 µM",102%
same,"viability, T/C","second compound 0.0316 µM, first compound 0.0316 µM",99.1%
same,"viability, T/C","second compound 0.0316 µM, first compound 0.1 µM",98.3%
same,"viability, T/C","second compound 0.0316 µM, first compound 0.316 µM",81.8%
same,"viability, T/C","second compound 0.0316 µM, first compound 1 µM",69%
same,"viability, T/C","second compound 0.1 µM, first compound 0.00316 µM",96.3%
same,"viability, T/C","second compound 0.1 µM, first compound 0.01 µM",110%
same,"viability, T/C","second compound 0.1 µM, first compound 0.0316 µM",89.4%
same,"viability, T/C","second compound 0.1 µM, first compound 0.1 µM",107%
same,"viability, T/C","second compound 0.1 µM, first compound 0.316 µM",90.7%
same,"viability, T/C","second compound 0.1 µM, first compound 1 µM",70.1%
same,"viability, T/C","second compound 0.316 µM, first compound 0.00316 µM",102%
same,"viability, T/C","second compound 0.316 µM, first compound 0.01 µM",96.9%
same,"viability, T/C","second compound 0.316 µM, first compound 0.0316 µM",99.2%
same,"viability, T/C","second compound 0.316 µM, first compound 0.1 µM",86.1%
same,"viability, T/C","second compound 0.316 µM, first compound 0.316 µM",91.8%
same,"viability, T/C","second compound 0.316 µM, first compound 1 µM",61.4%
same,"viability, T/C","second compound 1 µM, first compound 0.00316 µM",106%
same,"viability, T/C","second compound 1 µM, first compound 0.01 µM",91.8%
same,"viability, T/C","second compound 1 µM, first compound 0.0316 µM",79.9%
same,"viability, T/C","second compound 1 µM, first compound 0.1 µM",86.2%
same,"viability, T/C","second compound 1 µM, first compound 0.316 µM",93.8%
same,"viability, T/C","second compound 1 µM, first compound 1 µM",67.6%
same,"viability, T/C","second compound 3.16 µM, first compound 0.00316 µM",117%
same,"viability, T/C","second compound 3.16 µM, first compound 0.01 µM",110%
same,"viability, T/C","second compound 3.16 µM, first compound 0.0316 µM",93.8%
same,"viability, T/C","second compound 3.16 µM, first compound 0.1 µM",102%
same,"viability, T/C","second compound 3.16 µM, first compound 0.316 µM",85.3%
same,"viability, T/C","second compound 3.16 µM, first compound 1 µM",84.6%
same,"viability, T/C","second compound 10 µM, first compound 0.00316 µM",117%
same,"viability, T/C","second compound 10 µM, first compound 0.01 µM",100%
same,"viability, T/C","second compound 10 µM, first compound 0.0316 µM",96.7%
same,"viability, T/C","second compound 10 µM, first compound 0.1 µM",94.7%
same,"viability, T/C","second compound 10 µM, first compound 0.316 µM",100%
same,"viability, T/C","second compound 10 µM, first compound 1 µM",78.2%

# Source: PubChem BioAssay AID1963852 (Molecular Pharmacology Branch, DTP, NCI, 2024)
